Measurements published in patent publication US9475805B2, “Tricyclic compound” (Kyowa Hakko Kirin Co., Ltd., priority 2008, dated 2016).

biological target: T1, PPAR γ (Homo sapiens, UniProt P37231); experiment: PPAR γ activation action based on transactivation assay of PPAR γ by transient gene transfer (GAL4-PPAR γ chimeric receptor, luciferase reporter, HEK293EBNA cells); assay type: cell-based; conditions: concentration showing 50% of the compound's own efficacy (maximum activity rate relative to pioglitazone 10 μmol/L = 100%), 24 hr
T1 construct: expressed in transfected cells; host or cells: HEK293EBNA
T1 sequence (P37231 174-475 isoform P37231-2): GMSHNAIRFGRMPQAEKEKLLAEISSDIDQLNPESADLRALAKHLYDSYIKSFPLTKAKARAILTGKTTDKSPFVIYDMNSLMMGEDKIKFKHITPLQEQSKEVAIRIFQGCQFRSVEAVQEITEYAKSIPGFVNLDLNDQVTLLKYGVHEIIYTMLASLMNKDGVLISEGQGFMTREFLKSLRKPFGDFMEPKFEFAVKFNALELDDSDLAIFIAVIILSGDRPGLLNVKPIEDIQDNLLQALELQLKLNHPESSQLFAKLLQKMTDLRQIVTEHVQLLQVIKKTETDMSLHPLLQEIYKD
Description: The agonist activity of compound (I) to PPAR γ was determined by a transactivation assay method using a chimeric nuclear receptor of a DNA binding region of a yeast transcription factor GAL4 and a PPAR γ ligand binding region. Specifically, the PPAR γ agonist activity of compound (I) was evaluated by the following method based on the method of Lehmann et al. (J Biol Chem., 1995, vol. 270, page 12953).
HEK293EBNA cells cultured in Dulbecco's Modified Eagle medium (Invitrogen) containing 10 v/v % fetal calf serum (Invitrogen) were used. 30 mL of the above-mentioned cells (density: 1×10^5 cells/mL) were inoculated in a […] (Iwaki Glass), and cultured overnight. Using SuperFect Transfection Reagent (QIAGEN), a plasmid expressing a GAL4-PPAR γ chimeric nuclear receptor fusing 174-475 amino acids, which are human PPAR γ ligand binding region, and 1-147 amino acids, which are GAL4 DNA binding region, and a reporter plasmid expressing a GAL4 responsive luciferase were transiently introduced into the cells at a proportion of 4:1. After 5 hr from transfection, the cells were detached from the culture dish, and the detached cells (density: 2×10^4 cells/mL) were inoculated by 100 μL in each well of a 96 well white plate (SUMITOMO BAKELITE), and cultured overnight. The medium was removed, compound (I) diluted in various concentrations with serum-free Dulbecco's Modified Eagle medium was added by 100 μL, and the mixture was reacted under a 5% carbon dioxide gas stream (5% CO2) at 37° C. for 24 hr. On the other hand, as a positive control, 10 μmol/L of pioglitazone (100 μL) was added, and the mixture was reacted under a 5% carbon dioxide gas stream (5% CO2) at 37° C. for 24 hr. As a substrate of luciferase, 100 μL of Steady-Glo (Promega) was added to each well and the mixture was thoroughly stirred. Immediately thereafter, the chemical luminescence due to luciferase was measured using TopCount NTX (Packard).
The agonist activity (activity rate (%)) of compound (I) to PPAR γ was calculated according to the following formula, as a relative activity when the agonist activity on addition of pioglitazone (10 μmol/L) was 100%.

Point of comparison: COCc1nc2ccccc2n1Cc1ccc2c(c1)COc1ccccc1/C2=C(\C)c1noc(=O)[nH]1 [Compound 30, (E)-8-(2-Methoxymethylbenzimidazol-1-yl)methyl-11-[1-(5-oxo-4,5-dihydro-1,2,4-oxadiazol-3-yl)ethylidene]-6,11-dihydrodibenzo[b,e]oxepine], EC50 9.8 nM. Against it:
- CCCc1nc2ccccc2n1Cc1ccc2c(c1)CCc1ccccc1/C2=C\c1noc(=O)[nH]1 [Compound 5, (E)-2-(2-Propylbenzimidazol-1-yl)methyl-5-(5-oxo-4,5-dihydro-1,2,4-oxadiazol-3-yl)methylene-10,11-dihydro-5H-dibenzo[a,d]cycloheptene] — 41-fold higher, 399 nM
- CCCc1nc2ccccc2n1Cc1ccc2c(c1)CCc1ccccc1/C2=C\c1n[nH]c(=O)o1 [Compound 7, (E)-2-(2-Propylbenzimidazol-1-yl)methyl-5-(5-oxo-4,5-dihydro-1,3,4-oxadiazol-2-yl)methylene-10,11-dihydro-5H-dibenzo[a,d]cycloheptene] — 81-fold higher, 791 nM
- CCc1nc2c(C)cc(C)nc2n1Cc1ccc2c(c1)CCc1ccccc1/C2=C\c1noc(=S)[nH]1 [Compound 8, (E)-2-(2-Ethyl-5,7-dimethyl-3H-imidazo[4,5-b]pyridin-3-yl)methyl-5-(5-thioxo-4,5-dihydro-1,2,4-oxadiazol-3-yl)methylene-10,11-dihydro-5H-dibenzo[a,d]cycloheptene] — 18-fold higher, 175 nM
- CCCc1nc2c(C)cccc2n1Cc1ccc2c(c1)CCc1ccccc1/C2=C(\C)c1nnn[nH]1 [Compound 17, (Z)-2-(4-Methyl-2-propylbenzimidazol-1-yl)methyl-5-[1-(1H-tetrazol-5-yl)ethylidene]-10,11-dihydro-5H-dibenzo[a,d]cycloheptene] — 3.1-fold higher, 30 nM
- C/C(=C1\c2ccccc2CCc2cc(Cn3c(C4CC4)nc4c(Cl)cccc43)ccc21)c1noc(=O)[nH]1 [Compound 19, (Z)-2-(4-Chloro-2-cyclopropylbenzimidazol-1-yl)methyl-5-[1-(5-oxo-4,5-dihydro-1,2,4-oxadiazol-3-yl)ethylidene]-10,11-dihydro-5H-dibenzo[a,d]cycloheptene] — 1.5-fold lower, 6.4 nM
- CCc1nc(-c2ccccc2)cn1Cc1ccc2c(c1)COc1ccccc1/C2=C(\C)c1noc(=O)[nH]1 [Compound 21, (E)-8-(2-Ethyl-4-phenylimidazol-1-yl)methyl-11-[1-(5-oxo-4,5-dihydro-1,2,4-oxadiazol-3-yl)ethylidene]-6,11-dihydrodibenzo[b,e]oxepine] — 4.1-fold higher, 40 nM
- CCc1nc2ccccc2n1Cc1ccc2c(c1)COc1ccccc1/C2=C(\C)c1noc(=O)[nH]1 [Compound 26, (E)-8-(2-Ethylbenzimidazol-1-yl)methyl-11-[1-(5-oxo-4,5-dihydro-1,2,4-oxadiazol-3-yl)ethylidene]-6,11-dihydrodibenzo[b,e]oxepine] — 1.7-fold higher, 17 nM
- CCCc1nc2ccccc2n1Cc1ccc2c(c1)COc1ccccc1/C2=C(\C)c1noc(=O)[nH]1 [Compound 27, (E)-8-(2-Propylbenzimidazol-1-yl)methyl-11-[1-(5-oxo-4,5-dihydro-1,2,4-oxadiazol-3-yl)ethylidene]-6,11-dihydrodibenzo[b,e]oxepine] — 3.8-fold lower, 2.6 nM
- C/C(=C1/c2ccc(Cn3c(Cc4ccccc4)nc4ccccc43)cc2COc2ccccc21)c1noc(=O)[nH]1 [Compound 33, (E)-8-(2-Benzylbenzimidazol-1-yl)methyl-11-[1-(5-oxo-4,5-dihydro-1,2,4-oxadiazol-3-yl)ethylidene]-6,11-dihydrodibenzo[b,e]oxepine] — 2.7-fold higher, 26 nM
- CCCc1nc2c(C)cccc2n1Cc1ccc2c(c1)COc1ccccc1/C2=C(\C)c1noc(=O)[nH]1 [Compound 35, (E)-8-(2-Propyl-4-methylbenzimidazol-1-yl)methyl-11-[1-(5-oxo-4,5-dihydro-1,2,4-oxadiazol-3-yl)ethylidene]-6,11-dihydrodibenzo[b,e]oxepine] — 4.1-fold lower, 2.4 nM
- CCc1nc2c(C)cc(-c3ccccc3)cc2n1Cc1ccc2c(c1)CCc1ccccc1/C2=C\C#N [Compound 50, (E)-[2-(2-Ethyl-4-methyl-6-phenylbenzimidazol-1-yl)methyl-10,11-dihydro-5H-dibenzo[a,d]cyclohepten-5-ylidene]acetonitrile] — 36-fold higher, 352 nM
- Cc1cc(-c2ccccc2)cc2c1nc(C)n2Cc1ccc2c(c1)CCc1ccccc1/C2=C\c1nnn[nH]1 [Compound 54, (E)-2-(2,4-Methyl-6-phenylbenzimidazol-1-yl)methyl-5-(1H-tetrazol-5-yl)methylene-10,11-dihydro-5H-dibenzo[a,d]cycloheptene] — 5.5-fold higher, 54 nM
- Cc1cc(-c2ccccc2)cc2c1nc(C)n2Cc1ccc2c(c1)CCc1ccccc1/C2=C\C(=O)O [Compound 55, (E)-[2-(2,4-Dimethyl-6-phenylbenzimidazol-1-yl)methyl-10,11-dihydro-5H-dibenzo[a,d]cyclohepten-5-ylidene]acetic acid] — 4-fold higher, 39 nM
- CCCc1nc2c(C)cc(-c3cccs3)cc2n1Cc1ccc2c(c1)CCc1ccccc1/C2=C\c1nnn[nH]1 [Compound 67, (E)-2-[4-Methyl-2-propyl-6-(2-thienyl)benzimidazol-1-yl]methyl-5-(1H-tetrazol-5-yl)methylene-10,11-dihydro-5H-dibenzo[a,d]cycloheptene] — 16-fold higher, 156 nM
- CCCc1nc2c(C)cc(-c3nnco3)cc2n1Cc1ccc2c(c1)CCc1ccccc1/C2=C\c1nnn[nH]1 [Compound 70, (E)-2-[4-Methyl-6-(1,3,4-oxadiazol-2-yl)-2-propylbenzimidazol-1-yl]methyl-5-(1H-tetrazol-5-yl)methylene-10,11-dihydro-5H-dibenzo[a,d]cycloheptene] — 16-fold higher, 156 nM
- CCc1nc2c(C)cc(C)nc2n1Cc1ccc2c(c1)OCc1ccccc1/C2=C(\C)c1noc(=O)[nH]1 [Compound 76, (Z)-3-(2-Ethyl-5,7-dimethyl-3H-imidazo[4,5-b]pyridin-3-yl)methyl-11-[1-(5-oxo-4,5-dihydro-1,2,4-oxadiazol-3-yl)ethylidene]-6,11-dihydrodibenzo[b,e]oxepine] — 33-fold higher, 328 nM
- CCCc1nc2c(C)cccc2n1C(C)c1ccc2c(c1)CCc1ccccc1/C2=C\c1noc(=O)[nH]1 (centres unmarked) [Compound 85, (E)-2-[1-(2-Propyl-4-methylbenzimidazol-1-yl)ethyl]-5-(5-oxo-4,5-dihydro-1,2,4-oxadiazol-3-yl)methylene-10,11-dihydro-5H-dibenzo[a,d]cycloheptene] — 2.8-fold higher, 27 nM
- CCc1nc2c(Cl)cccc2n1C(C)c1ccc2c(c1)CCc1ccccc1/C2=C\c1noc(=O)[nH]1 (centres unmarked) [Compound 87, (E)-2-[1-(4-Chloro-2-ethylbenzimidazol-1-yl)ethyl]-5-(5-oxo-4,5-dihydro-1,2,4-oxadiazol-3-yl)methylene-10,11-dihydro-5H-dibenzo[a,d]cycloheptene] — 6.1-fold higher, 60 nM
- CCCc1nc2c(C)cc(-c3ncco3)cc2n1Cc1ccc2c(c1)CCc1ccccc1/C2=C\C(=O)N(C)CC(=O)O [Compound 95, (E)-2-[N-Methyl 2-({2-[4-methyl-6-(1,3-oxazol-2-yl)-2-propylbenzimidazol-1-yl]methyl-10,11-dihydro-5H-dibenzo[a,d]cyclohepten-5-ylidene}acetamido)]acetic acid] — 3.2-fold higher, 31 nM
- CCCc1nc2c(C(C)(C)O)cccc2n1Cc1ccc2c(c1)COc1ccccc1/C2=C(\C)c1noc(=O)[nH]1 [Compound 96, (E)-8-[(4-Hydroxypropan-2-yl)-2-propylbenzimidazol-1-yl]methyl-11-[1-(5-oxo-4,5-dihydro-1,2,4-oxadiazol-3-yl)ethylidene]-6,11-dihydrodibenzo[b,e]oxepine] — within 1.5-fold, 13 nM
- CCCc1nc2c(C(N)=O)cccc2n1Cc1ccc2c(c1)COc1ccccc1/C2=C(\C)c1noc(=O)[nH]1 [Compound 100, (E)-1-{11-[1-(5-Oxo-4,5-dihydro-1,2,4-oxadiazol-3-yl)ethylidene]-6,11-dihydrodibenzo[b,e]oxepin-8-yl}methyl-2-propylbenzimidazole-4-carboxamide] — 2-fold higher, 20 nM
- CCC/C(=C1/c2ccc(Cn3c(CCC)nc4ccccc43)cc2COc2ccccc21)c1noc(=O)[nH]1 [Compound 115, (E)-11-[1-(5-Oxo-4,5-dihydro-1,2,4-oxadiazol-3-yl)butylidene]-8-(2-propylbenzimidazol-1-yl)methyl-6,11-dihydrodibenzo[b,e]oxepine] — 3.7-fold higher, 36 nM
